In publication PMC4682037, “Signal transduction in light–oxygen–voltage receptors lacking the adduct-forming cysteine residue” (Nature Communications, 2015):

What was measured:
BAT-LOV* [1] = biological target: T1, BAT-LOV* (Halorubrum hochstenium, UniProt M0FIW0); test: reconstitution with excess flavin, absorption spectroscopy, SEC; format: binding; settings: incubated at least 12 h in 0.5 M NaCl, unbound flavin removed by 10 kDa filter
T1 construct: gene C467_03291; isolated LOV* domain, residues 141-275, synthetic gene, N-terminal His6 tag (pET28a), E. coli BL21(DE3), endogenous flavin removed by Q XL, monomer; full-length protein also has receiver, GAF and HTH modules

[2] = biological target: T2, VVD-III (VVD Δ36, C108A:M135I:M165I) (Neurospora crassa, UniProt Q9C3Y6, C108A/M135I/M165I/Q182L); test: photoreduction, SEC; format: binding; settings: flavin bound on purification; 448-nm laser 30 mW, 50 mM Hepes pH 8, 150 mM NaCl
T2 construct: lacks the first 36 residues, C108A/M135I/M165I, pET28a, Ni:NTA purified from E. coli BL21(DE3)

[3] = biological target: T3, VVD-III (VVD Δ36, C108A:M135I:M165I) (Neurospora crassa, UniProt Q9C3Y6, Y40E/C108A/M135I/M165I); test: photoreduction, SEC; format: binding; settings: flavin bound on purification; 448-nm laser 30 mW, 50 mM Hepes pH 8, 150 mM NaCl
T3 construct: lacks the first 36 residues, C108A/M135I/M165I, pET28a, Ni:NTA purified from E. coli BL21(DE3)

BAT-LOV* [4] = biological target: T4, BAT-LOV* (Halorubrum hochstenium, UniProt M0FIW0, P188C); test: photoreduction by absorption spectroscopy; format: binding; settings: 448-nm laser; flavin presumably FAD as for the wild type
T4 construct: gene C467_03291; isolated LOV* domain, residues 141-275, synthetic gene, N-terminal His6 tag (pET28a), E. coli BL21(DE3), endogenous flavin removed by Q XL, monomer; full-length protein also has receiver, GAF and HTH modules

BAT-LOV* [5] = biological target: T5, BAT-LOV* (Halorubrum hochstenium, UniProt M0FIW0, Y163F/W172F/Y247F); test: FAD reconstitution, photoreduction by absorption spectroscopy, SEC; format: binding; settings: BAT-III; 448-nm laser
T5 construct: gene C467_03291; isolated LOV* domain, residues 141-275, synthetic gene, N-terminal His6 tag (pET28a), E. coli BL21(DE3), endogenous flavin removed by Q XL, monomer; full-length protein also has receiver, GAF and HTH modules

BAT-LOV* [6] = biological target: T1, BAT-LOV*; test: reconstitution with excess flavin, absorption spectroscopy; format: binding; settings: incubated at least 12 h in 0.5 M NaCl, unbound flavin removed by 10 kDa filter
[7] = biological target: the molecule itself; test: SEC; VVD-III as purified from E. coli passed through a SEC column; flavin redox states separate; blue-coloured, NSQ-containing protein

T1 sequence (M0FIW0 entry or part of it): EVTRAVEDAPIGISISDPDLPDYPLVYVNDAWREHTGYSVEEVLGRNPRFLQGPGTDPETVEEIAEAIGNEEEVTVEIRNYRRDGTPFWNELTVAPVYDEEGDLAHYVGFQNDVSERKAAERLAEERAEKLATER
T5 sequence (M0FIW0 entry or part of it Y163F/W172F/Y247F): as the sequence (M0FIW0 entry or part of it) above, with Y23F, W32F, Y107F counted along it
T3 sequence (Q9C3Y6 entry or part of it Y40E/C108A/M135I/M165I): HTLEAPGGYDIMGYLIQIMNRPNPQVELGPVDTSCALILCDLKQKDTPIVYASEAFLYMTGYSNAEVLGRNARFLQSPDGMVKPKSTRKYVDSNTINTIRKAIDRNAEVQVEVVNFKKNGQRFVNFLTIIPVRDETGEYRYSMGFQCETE
T2 sequence (Q9C3Y6 entry or part of it C108A/M135I/M165I/Q182L): as the sequence (Q9C3Y6 entry or part of it Y40E/C108A/M135I/M165I) above, with E4Y, Q146L counted along it
T4 sequence (M0FIW0 entry or part of it P188C): as the sequence (M0FIW0 entry or part of it) above, with P48C counted along it

Cc1cc2nc3c(=O)[nH]c(=O)nc-3n(C[C@H](O)[C@H](O)[C@H](O)COP(=O)(O)OP(=O)(O)OC[C@H]3O[C@@H](n4cnc5c(N)ncnc54)[C@H](O)[C@@H]3O)c2cc1C [FAD]
reconstitution with excess flavin, absorption spectroscopy, SEC (BAT-LOV* [1]; flavin-free protein elutes in extended conformation): could be reconstituted with either FAD, FMN or riboflavin after incubation with excess cofactor | photoreduction, SEC [2]: Substituting the conserved Gln182 that interacts with flavin N5 to Leu | photoreduction, SEC [3]: both the light-adapted NSQ and dark-adapted oxidized quinone states elute from SEC as monomers | photoreduction by absorption spectroscopy (BAT-LOV* [4]): BAT P188C photoreduces to the HQ with little NSQ intermediate | FAD reconstitution, photoreduction by absorption spectroscopy, SEC (BAT-LOV* [5]): recombinantly expressed, FAD-reconstituted (a) BAT-LOV* and (b) BAT-III (Y163F:W172F:Y247F)

Cc1cc2nc3c(=O)[nH]c(=O)nc-3n(C[C@H](O)[C@H](O)[C@H](O)COP(=O)(O)O)c2cc1C [FMN]
reconstitution with excess flavin, absorption spectroscopy, SEC (BAT-LOV* [1]): could be reconstituted with either FAD, FMN or riboflavin after incubation with excess cofactor

Cc1cc2nc3c(=O)[nH]c(=O)nc-3n(C[C@H](O)[C@H](O)[C@H](O)CO)c2cc1C [riboflavin]
reconstitution with excess flavin, absorption spectroscopy (BAT-LOV* [6]): could be reconstituted with either FAD, FMN or riboflavin after incubation with excess cofactor

B1: VVD-III (VVD Δ36, C108A:M135I:M165I) (domain or fragment, Neurospora, UniProt Q9C3Y6 37-186, looked up)
chain: HTLYAPGGYDIMGYLIQIMNRPNPQVELGPVDTSCALILCDLKQKDTPIVYASEAFLYMTGYSNAEVLGRNARFLQSPDGMVKPKSTRKYVDSNTINTIRKAIDRNAEVQVEVVNFKKNGQRFVNFLTIIPVRDETGEYRYSMGFQCETE
notes: Vivid (VVD), LOV photoreceptor of Neurospora; lacks the first 36 N-terminal residues; C108A, M135I, M165I; Dark-adapted: oxidized quinone; light-adapted: neutral semiquinone (NSQ); also called Vivid; source: E. coli BL21(DE3), purified (Ni:NTA, SEC)
stoichiometry N [7]: 2
